Assay results as given in publication PMC8624523, “Novel GPR120 Agonists with Improved Pharmacokinetic Profiles for the Treatment of Type 2 Diabetes” (Molecules, 2021).
Like-named read-outs stand apart in the source and are kept apart here.

How the values were obtained:
human GPR120 = molecular target: T1, human GPR120 (Homo sapiens, UniProt Q5NUL3); assay: Ca2+ influx assay in CHO cells stably expressing human GPR120; format: cell-based; settings: CHO cells expressing human GPR120, Ca2+ signal, mean of three determinations
T1 construct: expressed in transfected cells
T1 sequence (Q5NUL3 1-361): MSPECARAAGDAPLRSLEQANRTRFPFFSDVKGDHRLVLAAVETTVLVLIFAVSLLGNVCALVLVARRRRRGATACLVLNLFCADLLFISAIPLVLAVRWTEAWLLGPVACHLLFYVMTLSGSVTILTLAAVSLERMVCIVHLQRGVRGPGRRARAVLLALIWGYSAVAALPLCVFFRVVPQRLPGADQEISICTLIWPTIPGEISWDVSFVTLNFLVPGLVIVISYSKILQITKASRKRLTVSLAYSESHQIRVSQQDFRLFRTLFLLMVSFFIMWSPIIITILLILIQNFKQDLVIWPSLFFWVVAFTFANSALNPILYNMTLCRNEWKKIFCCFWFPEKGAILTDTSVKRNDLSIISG
Protocol: Chinese hamster ovary (CHO) cells stably expressing human GPR120 were suspended in growth media at a concentration of 1 × 10^6 per mL. […] The cell plate was removed from the incubator, the medium was gently discarded, and the wells were washed with 100 μL of Hank’s balanced salt solution (HBSS) per well. The cells were then incubated in HBSS containing fluorescent calcium indicator Fluo-4 AM (2.5 μg/mL) and probenecid (2.5 mmol/L) for 90 min. […] The test compounds at various concentrations were added to the cells, and intracellular Ca^2+ concentrations were measured using FlexStation3 Molecular Devices. The GPR120 agonistic activities of the test compounds were expressed as A/B (increase in the intracellular Ca^2+ concentration (A) in the test compound-treated cells and (B) in vehicle-treated cells). The EC50 value of each compound was calculated using Prism software (version 5.0; GraphPad Software, San Diego, CA, USA).

hGPR40 [1] = molecular target: T2, hGPR40 (Homo sapiens, UniProt O14842); assay: Calcium influx assay on hGPR40-expressing CHO cells; format: cell-based; settings: for Selectivity: GPR40 EC50 over GPR120 EC50; for EC50: hGPR40-expressing CHO cells, calcium influx, mean of three determinations, read-out: GPR40 (EC50)
T2 construct: expressed in transfected cells; host or cells: CHO cells

hGPR40 [2] = molecular target: T2, hGPR40; parameters: method as in PMID 22519963, PMID 29100735, PMID 28642104, PMID 28947942, PMID 28374589; settings: cited from earlier work
hGPR120 = tested on: hGPR120; parameters: method as in PMID 22519963, PMID 29100735, PMID 28642104, PMID 28947942, PMID 28374589; settings: Figure 1, literature values; cited from earlier work
[3] = Pharmacokinetic analysis in C57BL/6 mice after gavage administration; format: in vivo; settings: male, mouse, plasma, po, 10 mg/kg gavage, 0.5% MC; for AUC / Cmax / half-life: mean ± SEM of four mice
Protocol: Plasma was collected with a pipette and the proteins in the plasma were precipitated with two volumes of acetonitrile containing an internal standard. This was followed by centrifugation at 15.680 g for 10 min after vortexing for 5 min. The supernatant was diluted with acetonitrile and 10 μL of supernatant was analyzed by Waters LC-PDA-MS/MS to determine plasma drug levels. Pharmacokinetic parameters were determined using the mean data from four mice at each time point. Statistical analysis of the data was performed using the DAS 2.1.1 statistical software program (BioVoice, Shanghai, China).

normal ICR mice = assay: Oral glucose tolerance test in normal ICR mice; format: in vivo; settings: fasted ICR mice
Protocol: Male ICR starved overnight (12 h) were weighed and randomly divided into six groups (eight mice per group). […] Blood samples were collected via the tail tip before drug administration (-30 min), before glucose loading (time 0), and 15, 30, 60, and 120 min after glucose loading. Blood glucose levels were measured using blood glucose test strips (Sannuo GA-3 type, Changsha, China).

DIO mice = assay: Anti-hyperglycemic effects (oGTT) in diet-induced obese (DIO) mice; format: in vivo, C57BL/6 mice; settings: fasted DIO mice, 20 mg/kg gavage 30 min before oral glucose 2 g/kg
Text: After 1 week of adaptation, male C57BL/6 mice weighing 18–22 g, were fed a high-fat diet (45% calories from fat, from Mediscience Ltd., Yangzhou, China) ad libitum for an additional 8 weeks to induce insulin resistance. […] Blood samples were collected and measured in accordance with the oral glucose tolerance test in normal ICR mice.

T2 sequence (O14842 whole entry): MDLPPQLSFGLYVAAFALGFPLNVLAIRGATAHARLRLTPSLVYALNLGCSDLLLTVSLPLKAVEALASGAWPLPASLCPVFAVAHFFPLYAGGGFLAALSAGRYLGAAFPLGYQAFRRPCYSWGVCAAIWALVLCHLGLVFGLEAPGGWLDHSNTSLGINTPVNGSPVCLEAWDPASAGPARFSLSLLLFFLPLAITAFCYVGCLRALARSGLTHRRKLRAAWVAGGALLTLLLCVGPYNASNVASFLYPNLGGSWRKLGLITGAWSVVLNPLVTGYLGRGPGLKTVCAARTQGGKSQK

| Structure (SMILES) | EC50 (human GPR120) | melting point | further results |
| --- | --- | --- | --- |
| Cc1ccc(-c2ccc(F)cc2COc2ccc(CC(C)C(=O)O)cc2)cc1 (stereo not drawn) [Compound 1f, 3-(4-((4-Fluoro-4′-methyl-[1,1′-biphenyl]-2-yl)methoxy)phenyl)-2-methylpropanoic acid] | 0.146 µM | 103 to 104 °C |  |
| Cc1ccc(-c2ccc(F)cc2COc2ccc(C(C)CC(=O)O)cc2)cc1 (stereo not drawn) [Compound 2f, 3-(4-((4-Fluoro-4′-methyl-[1,1′-biphenyl]-2-yl)methoxy)phenyl)butanoic acid] | 0.0528 µM | 100 to 101 °C | Selectivity (hGPR40 [1]): 1373; EC50 (hGPR40 [1]): 72.5 µM |
| O=C(O)CCc1cc(F)c(OCc2c(-c3ccc(Cl)cc3F)nsc2C(F)(F)F)c(F)c1 [Compound 3] |  |  | EC50 (hGPR40 [2]; Figure 1, literature value): > 5 µM; EC50 (hGPR120): 0.042 µM |
| Cc1ccc(-c2ccc(F)cc2COc2ccc(CCC(=O)O)c(C)c2)cc1 [Compound 3f, 3-(4-((4-Fluoro-4′-methyl-[1,1′-biphenyl]-2-yl)methoxy)-2-methylphenyl)propanoic acid] | 0.0902 µM | 116 to 117 °C |  |
| Cc1ccc(-n2nc(C)c3cnc(-c4ccc([C@H]5C[C@@H]5C(=O)O)cc4)cc32)nc1 [Compound 4] |  |  | EC50 (hGPR40 [2]; Figure 1, literature values): > 100 µM; EC50 (hGPR120): 0.74 µM |
| Cc1ccc(-c2ccc(F)cc2COc2ccc(CCC(=O)O)c(F)c2)cc1 [Compound 4f, 3-(2-Fluoro-4-((4-fluoro-4′-methyl-[1,1′-biphenyl]-2-yl)methoxy)phenyl)propanoic acid] | 0.11 µM | 101 to 102 °C |  |
| CO[C@H]1C[C@H](Oc2cc(F)c(F)c(-c3c(F)cc(OCCCC(=O)O)cc3F)c2)C1 [Compound 5] |  |  | EC50 (hGPR40 [2]; Figure 1, literature values): > 100 µM; EC50 (hGPR120): 0.093 µM |
| Cc1ccc(-c2ccc(F)cc2COc2ccc(OCC(=O)O)cc2)cc1 [Compound 5f, 2-(4-((4-Fluoro-4′-methyl-[1,1′-biphenyl]-2-yl)methoxy)phenoxy)acetic acid] | 0.103 µM | 119 to 120 °C |  |
| O=S1(=O)c2ccccc2CN1c1cc(F)cc(Oc2ccccn2)c1 [Compound 6] |  |  | hGPR40 activity (hGPR40 [2]; at 100 uM, Figure 1, literature value): inactive; EC50 (hGPR120): 0.123 µM |
| Cc1ccc(-c2ccc(F)cc2COc2ccc(OCC(=O)O)c(C)c2)cc1 [Compound 6f, 2-(4-((4-Fluoro-4′-methyl-[1,1′-biphenyl]-2-yl)methoxy)-2-methylphenoxy)acetic acid] | 0.0727 µM | 115 to 116 °C | Selectivity (hGPR40 [1]): 810; EC50 (hGPR40 [1]): 58.9 µM |
| Cc1ccc(-c2ccc(F)cc2COc2ccc(OCC(=O)O)c(F)c2)cc1 [Compound 7f, 2-(2-Fluoro-4-((4-fluoro-4′-methyl-[1,1′-biphenyl]-2-yl)methoxy)phenoxy)acetic acid] | 0.106 µM | 109 to 110 °C |  |
| CC(CC(=O)O)c1ccc(OCC(=O)N2CCCc3ccccc32)cc1 (stereo not drawn) [Compound 11a, 3-(4-(2-(3,4-Dihydroquinolin-1(2H)-yl)-2-oxoethoxy)phenyl)butanoic acid] | 0.113 µM | 117 to 118 °C |  |
| Cc1ccc2c(c1)CCCN2C(=O)COc1ccc(C(C)CC(=O)O)cc1 (stereo not drawn) [Compound 11b, 3-(4-(2-(6-Methyl-3,4-dihydroquinolin-1(2H)-yl)-2-oxoethoxy)phenyl)butanoic acid] | 0.0712 µM | 115 to 116 °C | Tmax [3]: 0.5 h; AUC [3]: 9.05 ± 0.435 µg·h/mL; Cmax [3]: 2.53 ± 0.115 µg/mL; half-life [3]: 1.78 ± 0.42 h; anti-hyperglycemic effects compared with TUG-891 (normal ICR mice; 30 mg/kg, at 30 min after the oral glucose challenge): better than TUG-891; hypoglycemia (normal ICR mice; dose of 100 mg/kg by gavage): no hypoglycemia was observed; blood glucose during oGTT (normal ICR mice; gavage 20 mg/kg 30 min before oral glucose 3.0 g/kg): significantly reduced blood glucose; blood glucose levels during oGTT (normal ICR mice; gavage 10, 20, 30 and 100 mg/kg 30 min before oral glucose 3.0 g/kg): lowered the blood glucose levels in a dose-dependent manner; anti-diabetic effects (blood glucose during oGTT) (DIO mice): equivalent to TUG-891; insulin levels at 30 min after oral administration of glucose (DIO mice): significantly increased insulin levels; Selectivity (hGPR40 [1]): 1159; EC50 (hGPR40 [1]): 82.5 µM |
| COc1ccc2c(c1)CCCN2C(=O)COc1ccc(C(C)CC(=O)O)cc1 (stereo not drawn) [Compound 11c, 3-(4-(2-(6-Methoxy-3,4-dihydroquinolin-1(2H)-yl)-2-oxoethoxy)phenyl)butanoic acid] | 0.0996 µM | 141 to 142 °C |  |
| CC(CC(=O)O)c1ccc(OCC(=O)N2CCCc3cc(F)ccc32)cc1 (stereo not drawn) [Compound 11d, 3-(4-(2-(6-Fluoro-3,4-dihydroquinolin-1(2H)-yl)-2-oxoethoxy)phenyl)butanoic acid] | 0.187 µM | 124 to 130 °C |  |
| Cc1cc(OCC(=O)N2CCCc3ccccc32)ccc1OCC(=O)O [Compound 11e, 2-(4-(2-(3,4-Dihydroquinolin-1(2H)-yl)-2-oxoethoxy)-2-methylphenoxy)acetic acid] | 0.255 µM | 138 to 139 °C |  |
| Cc1cc(OCC(=O)N2CCCc3cc(F)ccc32)ccc1OCC(=O)O [Compound 11f, 2-(4-(2-(6-Fluoro-3,4-dihydroquinolin-1(2H)-yl)-2-oxoethoxy)-2-methylphenoxy)acetic acid] | 0.204 µM | 152 to 153 °C |  |
| Cc1ccc2c(c1)CCCN2C(=O)COc1ccc(OCC(=O)O)c(C)c1 [Compound 11g, 2-(2-Methyl-4-(2-(6-methyl-3,4-dihydroquinolin-1(2H)-yl)-2-oxoethoxy)phenoxy)acetic acid] | 0.0834 µM | 147 to 148 °C | Tmax [3]: 0.5 h; AUC [3]: 6.71 ± 0.467 µg·h/mL; Cmax [3]: 1.85 ± 0.102 µg/mL; half-life [3]: 1.52 ± 0.37 h; Selectivity (hGPR40 [1]): 1036; EC50 (hGPR40 [1]): 86.4 µM |
| COc1ccc2c(c1)CCCN2C(=O)COc1ccc(OCC(=O)O)c(C)c1 [Compound 11h, 2-(4-(2-(6-Methoxy-3,4-dihydroquinolin-1(2H)-yl)-2-oxoethoxy)-2-methylphenoxy)acetic acid] | 0.146 µM | 141 to 142 °C |  |
